Source: ChEMBL document CHEMBL1201862, “PubChem BioAssay data set” (2004)
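Tested at 5 concentrations; 48 h exposure; 96-well plates; endpoints linearly interpolated, else capped at highest concentration. At the GI50, growth is halved.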 Active and inactive are the calls of the source. Rule as the data show it: active = GI50 up to about 1.1 µM and inactive = higher.

Tests used:
Test in all cases: NCI-60 cell line screen, 48 h
UACC-62 = tested on: UACC-62
UACC-257 = tested on: UACC-257
NCI/ADR-RES = tested on: NCI/ADR-RES
RXF 393 = tested on: RXF 393
NCI-H522 = tested on: NCI-H522
KM12 = tested on: KM12
ACHN = tested on: ACHN
EKVX = tested on: EKVX
SNB-75 = tested on: SNB-75
BT-549 = tested on: BT-549
MDA-MB-231 = tested on: MDA-MB-231
OVCAR-8 = tested on: OVCAR-8
HT-29 = tested on: HT-29
RPMI-8226 = tested on: RPMI-8226
IGROV-1 = tested on: IGROV-1
NCI-H226 = tested on: NCI-H226
CAKI-1 = tested on: CAKI-1
U-251 = tested on: U-251
DU-145 = tested on: DU-145
A498 = tested on: A498

Row | SMILES | GI50 (UACC-62) | GI50 (UACC-257) | GI50 (NCI/ADR-RES) | GI50 (RXF 393) | GI50 (NCI-H522) | GI50 (KM12) | GI50 (ACHN) | GI50 (EKVX) | GI50 (SNB-75) | GI50 (BT-549) | GI50 (MDA-MB-231) | GI50 (OVCAR-8) | GI50 (HT-29) | GI50 (RPMI-8226) | GI50 (IGROV-1) | GI50 (NCI-H226) | GI50 (CAKI-1) | GI50 (U-251) | GI50 (DU-145) | GI50 (A498)
1 | OC(C1CCCCCCCCCC1)C(O)C1CCCCCCCCCC1 (stereo not given) | > 100 µM (inactive) | > 100 µM (inactive) | > 100 µM (inactive) | 93.1 µM (inactive) | 61 µM (inactive) | > 100 µM (inactive) | > 100 µM (inactive) | > 100 µM (inactive) | > 100 µM (inactive) | > 100 µM (inactive) | > 100 µM (inactive) | > 100 µM (inactive) | > 100 µM (inactive) | > 100 µM (inactive) | > 100 µM (inactive) | > 100 µM (inactive) | > 100 µM (inactive) | > 100 µM (inactive) | > 100 µM (inactive) | 
2 | Cc1c2cccc-2ccc2c1[nH]c1ccc(Br)cc12 | 13 µM (inactive) | 24.2 µM (inactive) | 9.59 µM (inactive) |  | 2.48 µM (inactive) | 2.47 µM (inactive) | 12.1 µM (inactive) | 1.78 µM (inactive) | 2.21 µM (inactive) | 7.03 µM (inactive) | 4.33 µM (inactive) | 7.36 µM (inactive) | 13.2 µM (inactive) | 3.15 µM (inactive) | 2.56 µM (inactive) | 2.04 µM (inactive) | 11.8 µM (inactive) | 3.21 µM (inactive) | 10.9 µM (inactive) | 21.8 µM (inactive)
3 | Cc1ccc(O)c(-c2cc(-c3cccc(Br)c3)on2)c1 | 28.6 µM (inactive) | 48.8 µM (inactive) | 31.8 µM (inactive) | 17.3 µM (inactive) |  | 20.3 µM (inactive) | 35.6 µM (inactive) | 34.4 µM (inactive) | 12.2 µM (inactive) | 27.7 µM (inactive) | 30.1 µM (inactive) | 25.8 µM (inactive) | 25.5 µM (inactive) | 25.2 µM (inactive) | 14.5 µM (inactive) |  | 23.4 µM (inactive) | 17 µM (inactive) | 33.6 µM (inactive) | 68.9 µM (inactive)
4 | Clc1ccc(Cl)c(Nc2ccnc(SCc3ccccc3)n2)c1 | > 100 µM (inactive) | > 100 µM (inactive) | > 100 µM (inactive) | 20.4 µM (inactive) | 84.9 µM (inactive) | > 100 µM (inactive) | > 100 µM (inactive) | 57.9 µM (inactive) | > 100 µM (inactive) | > 100 µM (inactive) | > 100 µM (inactive) | > 100 µM (inactive) | 69.8 µM (inactive) | 99.8 µM (inactive) | > 100 µM (inactive) |  | > 100 µM (inactive) | > 100 µM (inactive) | > 100 µM (inactive) | > 100 µM (inactive)
5 | NCCCNc1ccc2c3c(nn2CCNCCO)-c2c(O)ccc(O)c2C(=O)c13 | 0.883 µM (active) | 5.81 µM (inactive) | 29.7 µM (inactive) |  | 1.18 µM (inactive) | 3.78 µM (inactive) | 0.989 µM (active) |  | 0.889 µM (active) | 0.695 µM (active) | 3.84 µM (inactive) |  | 3.68 µM (inactive) | 1.2 µM (inactive) | 2.46 µM (inactive) | 0.406 µM (active) |  |  | 1.29 µM (inactive) | 1.82 µM (inactive)
6 | COc1cccc(N2C(=O)C3c4[nH]c5ccc(C)cc5c4C4CCC(C)CC4C3C2=O)c1 (stereo not given) | 30.3 µM (inactive) | > 100 µM (inactive) | > 100 µM (inactive) | 18.3 µM (inactive) |  |  | > 100 µM (inactive) | 32.6 µM (inactive) |  | 76 µM (inactive) | 26.5 µM (inactive) | > 100 µM (inactive) | > 100 µM (inactive) | > 100 µM (inactive) | 89.5 µM (inactive) | > 100 µM (inactive) | 39.5 µM (inactive) | 51.3 µM (inactive) | > 100 µM (inactive) | 49 µM (inactive)
7 | COc1ccc(OC)c2sc(N3C(=O)/C(=C/c4ccccc4S)N=C3c3ccccc3)nc12 | 21.5 µM (inactive) | 63 µM (inactive) | 77.8 µM (inactive) | 18.8 µM (inactive) |  | 41 µM (inactive) | 34.8 µM (inactive) | 32.1 µM (inactive) | 16.5 µM (inactive) | 45.9 µM (inactive) | > 100 µM (inactive) | 47.2 µM (inactive) | 38.9 µM (inactive) | 22.6 µM (inactive) | 90.4 µM (inactive) |  | 95.9 µM (inactive) | 23.8 µM (inactive) | 49.4 µM (inactive) | 55.5 µM (inactive)
